Measurements as given in article PMC9345997, “Determination of oligosaccharide product distributions of PL7 alginate lyases by their structural elements” (Communications Biology, 2022).

Biological target: T1, PyAly (Pyropia yezoensis, UniProt D2KX85, H125A/Y223A)
T1 construct: single-domain PL7 lyase; E. coli BL21(DE3), pET32a; tag cleaved; residues built 27-241
Experiment: X-ray crystal structure, […] A
Assay type: binding
Details: cocrystallized at 10:1 molar ratio; complete M5 at subsites -2 to +3

T1 sequence (D2KX85 entry or part of it H125A/Y223A): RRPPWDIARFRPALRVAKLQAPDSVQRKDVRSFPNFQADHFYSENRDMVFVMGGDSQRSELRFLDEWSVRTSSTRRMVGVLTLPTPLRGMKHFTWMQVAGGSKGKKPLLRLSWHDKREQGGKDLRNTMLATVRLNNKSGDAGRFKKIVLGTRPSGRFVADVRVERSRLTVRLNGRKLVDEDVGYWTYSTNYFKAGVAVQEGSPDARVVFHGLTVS

Structure (SMILES): O=C(O)[C@H]1O[C@@H](O[C@H]2[C@H](O)[C@H](O)[C@H](O[C@H]3[C@H](O)[C@H](O)[C@H](O[C@H]4[C@H](O)[C@H](O)[C@H](O[C@H]5[C@H](O)[C@H](O)C(O)O[C@@H]5C(=O)O)O[C@@H]4C(=O)O)O[C@@H]3C(=O)O)O[C@@H]2C(=O)O)[C@@H](O)[C@@H](O)[C@@H]1O (stereo partly shown) [M5]
- X-ray crystal structure, 1.70 A: structure of the PyAly^H125A_Y223A-M5 complex presented the complete M5 substrate
